Values of other authors, collected in patent US20260217893A1, “ACID-BLOCKED PYRROLIDINE CATALYSTS FOR POLYURETHANE FOAM” (Huntsman Petrochemical LLC, priority 2019, published 2026).

conditions: refs 2-5: CRC Handbook, U.S. Pat. No. 9,051,442, J. Org. Chem. 1961, J. Chem. Eng. Data 2016

Row | pKa | Compound
1 | 9.18 | CN(C)CCN(C)CCO [JEFFCAT ® Z-110, N,N,N-trimethylaminoethyl-ethanolamine]
2 | 9.1 | CN(C)CCOCCO [JEFFCAT ® ZR-70, 2-(2-dimethylaminoethoxy) ethanol]
3 | 9.1 | CN(C)CCN(C)CCN(C)C [PMDETA, pentamethyldiethylenetriamine]

Row | Compound | pKa
4 | CN(C)C1CCCCC1 [dimethylcyclohexylamine, N,N-dimethylcyclohexylamine] | 10.1
